Data reported in patent US10342792B2, “Slow-release conjugates of SN-38” (ProLynx LLC, priority 2013, dated 2019).
Values joined by “and” are separate entries in the source; they are usually repeats but may differ in a detail not shown here. Equal entries are not always repeated. Where two headings read alike, the source gives them in different places.

Experiments:
[1] = in vivo; conditions: female, Sprague-Dawley, rat
Protocol: The samples were centrifuged at approximately 1,500×g (force) for 10 minutes at 2 to 8° C. to remove red blood cells and obtain ˜150 uL plasma. The plasma was divided into 2 aliquots and transferred to cryogenic vials and stored in a freezer at −80° C. prior to analysis.
For analysis, the samples were thawed on ice and mixed with 2 volumes of acetonitrile/0.5% acetic acid containing 8 ng/mL of camptothecin as internal standard. Precipitated protein was removed by centrifugation at 16,000×g for 10 min at 4° C. Sample supernatants (20 uL) were analyzed using a Phenomenex® 300 Å Jupiter 5 um 150×4.6 mm C18 HPLC column thermostatted at 40° C. using a gradient of 100 mM sodium phosphate, 3 mM heptane sulfonate, pH 4.0 (Buffer A) and 75% acetonitrile in water (Buffer B) at 1.0 mL/min. […] Sample elution was followed with a diode array detector and a fluorescence detector with excitation set at 370 nm and the emission set at 470 nm for the first 9 min followed by emission at 534 nm for the final 10 min. Concentrations were calculated by comparison of peak areas to standard curves of the conjugate (absorbance 380 nm), and SN-38 (fluorescence Ex: 370 nm; Em: 534 nm). […]
Plasma concentration versus time data for the conjugate were analyzed using a two-phase model where C(t)=A*exp(−αt)+B*exp(−βt) where A+B=dose/Vd. […]

[2] = Pharmacokinetic model prediction for human using allometric scaling; conditions: estimated by allometric scaling
[3] = cited from earlier work
[4] = cited from earlier work; remark: listed apart in the source
[5] = ionization of the 10-OH; cited from earlier work
[6] = fold more active than irinotecan; cited from earlier work

- half-life [1]: 15 min
- kc1, elimination of free SN-38 from the plasma [1]: 2.77 h⁻¹
- Vss [2]: ~0.15 L/kg
- kc1, elimination rate constant [2]: ~0.7 h⁻¹
- kc1 t1/2 [2]: ~60 min
SMILES: CCc1c2c(nc3ccc(O)cc13)-c1cc3c(c(=O)n1C2)COC(=O)[C@]3(O)CC [SN-38, 7-ethyl-10-hydroxycamptothecin]
- aqueous solubility ([3]; aqueous / water): 18 µM and 17 µM
- aqueous solubility ([3]; in water): 7 µg/mL
- volume of distribution Vd, reported value [4]: 0.18 L/kg
- pKa [5]: ~8.6
- activity relative to irinotecan [6]: ~1000 ×
